The test addresses T1, PD-1/PD-L1 (Homo sapiens, UniProt Q9NZQ7).
T1 construct: made in house; host or cells: HEK293T
Put plainly: PD-1/PD-L1 Homogenous Time-Resolved Fluorescence (HTRF) binding assay. The settings on record: PD-L1-His 10 nM, PD-1-Ig 20 nM, read-out: Range or IC50. A digest of the protocol:
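dPBS + 0.1% BSA + 0.05% Tween-20 buffer; Eu-cryptate anti-Ig 1 nM final, APC anti-His 20 nM final; HTRF read. Counter-assays: PD-1-Ig/PD-L2-His 20 & 5 nM, CD80-His/PD-L1-Ig 100 & 10 nM.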

The structures appear in SMILES notation. Like-named read-outs stand apart in the source and are kept apart here.

T1 sequence (Q9NZQ7 with tags, fused parts or gaps): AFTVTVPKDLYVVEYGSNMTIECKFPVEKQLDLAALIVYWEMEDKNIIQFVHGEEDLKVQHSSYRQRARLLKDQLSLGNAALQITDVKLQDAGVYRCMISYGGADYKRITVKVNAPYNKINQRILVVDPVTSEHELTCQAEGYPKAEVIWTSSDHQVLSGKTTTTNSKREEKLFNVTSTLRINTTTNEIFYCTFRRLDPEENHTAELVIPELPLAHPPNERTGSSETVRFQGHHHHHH

As for `CNC(=O)c1cccc(-c2cccc(COc3cc(OCc4cc(F)cc(F)c4)c(CNC(C)(CO)CO)cc3Cl)c2C)c1C` [Example 4029, 3′-((2-chloro-5-((3,5-difluorobenzyl)oxy)-4-(((1,3-dihydroxy-2-methylpropan-2-yl)amino)methyl)phenoxy)methyl)-N,2,2′-trimethyl-[1,1′-biphenyl]-3-carboxamide], the IC50 (value given as range class) was 10 to 100 nM. On the same count and under the same terms, then `Cc1c(COc2cc(OCc3cncc(C#N)c3)c(CN3CCCC[C@H]3C(=O)O)cc2Cl)cccc1-c1cccc(C(=O)N(C)C)c1C` [Example 4030, (S)-1-(5-chloro-2-((5-cyanopyridin-3-yl)methoxy)-4-((3′-(dimethylcarbamoyl)-2,2′-dimethyl-[1,1′-biphenyl]-3-yl)methoxy)benzyl)piperidine-2-carboxylic Acid], with 100 to 2000 nM. Take `Cc1c(COc2cc(OCc3cncc(C#N)c3)c(CN3CCC[C@H]3C(=O)O)cc2Cl)cccc1-c1cccc(C(=O)N(C)C)c1C` [Example 4031, (5-chloro-2-((5-cyanopyridin-3-yl)methoxy)-4-((3′-(dimethylcarbamoyl)-2,2′-dimethyl-[1,1′-biphenyl]-3-yl)methoxy)benzyl)-L-proline]: the IC50 (value given as range class) lay in the range of 2010 to 10000 nM. Turning to `Cc1c(COc2cc(OCc3cncc(C#N)c3)c(CN3C[C@H](O)C[C@H]3C(=O)O)cc2Cl)cccc1-c1cccc(C(=O)N(C)C)c1C` [Example 4032, (2S,4R)-1-(5-chloro-2-((5-cyanopyridin-3-yl)methoxy)-4-((3′-(dimethylcarbamoyl)-2,2′-dimethyl-[1,1′-biphenyl]-3-yl)methoxy)benzyl)-4-hydroxypyrrolidine-2-carboxylic Acid], under “value given as range class”, the IC50 is 100 to 2000 nM. Same read-out and setting: then `Cc1c(COc2cc(OCc3cncc(C#N)c3)c(CN3C[C@@H](O)C[C@H]3C(=O)O)cc2Cl)cccc1-c1cccc(C(=O)N(C)C)c1C` [Example 4033, (2S,4S)-1-(5-chloro-2-((5-cyanopyridin-3-yl)methoxy)-4-((3′-(dimethylcarbamoyl)-2,2′-dimethyl-[1,1′-biphenyl]-3-yl)methoxy)benzyl)-4-hydroxypyrrolidine-2-carboxylic Acid], with 100 to 2000 nM. Still for that read-out and setting: then `Cc1c(COc2cc(OCc3cncc(C#N)c3)c(CNC(CO)CO)cc2Cl)cccc1-c1cccc(C(=O)N(C)C)c1C` [Example 4034, 3′-((2-chloro-5-((5-cyanopyridin-3-yl)methoxy)-4-(((1,3-dihydroxypropan-2-yl)amino)methyl)phenoxy)methyl)-N,N,2,2′-tetramethyl-[1,1′-biphenyl]-3-carboxamide], with 10 to 100 nM; and `Cc1c(COc2cc(OCc3cncc(C#N)c3)c(CNC(C)(CO)CO)cc2Cl)cccc1-c1cccc(C(=O)N(C)C)c1C` [Example 4035, 3′-((2-chloro-5-((5-cyanopyridin-3-yl)methoxy)-4-(((1,3-dihydroxy-2-methylpropan-2-yl)amino)methyl)phenoxy)methyl)-N,N,2,2′-tetramethyl-[1,1′-biphenyl]-3-carboxamide], with 10 to 100 nM.

Consider `Cc1c(COc2cc(OCc3cncc(C#N)c3)c(CN3CCOC[C@H]3C(=O)O)cc2Cl)cccc1-c1cccc(C(=O)N(C)C)c1C` [Example 4036, (S)-4-(5-chloro-2-((5-cyanopyridin-3-yl)methoxy)-4-((3′-(dimethylcarbamoyl)-2,2′-dimethyl-[1,1′-biphenyl]-3-yl)methoxy)benzyl)morpholine-3-carboxylic Acid], for which the IC50 (value given as range class) was 2010 to 10000 nM. On to `Cc1c(COc2cc(OCc3cncc(C#N)c3)c(CN3CCCC[C@H]3C(=O)O)cc2Cl)cccc1-c1cccc(C(=O)N2CCCC2)c1C` [Example 4037, (S)-1-(5-chloro-2-((5-cyanopyridin-3-yl)methoxy)-4-((2,2′-dimethyl-3′-(pyrrolidine-1-carbonyl)-[1,1′-biphenyl]-3-yl)methoxy)benzyl)piperidine-2-carboxylic Acid], for which, where the note is “value given as range class”, the IC50 lay within 100 to 2000 nM. Still for that read-out and setting: then `Cc1c(COc2cc(OCc3cncc(C#N)c3)c(CNC(CO)CO)cc2Cl)cccc1-c1cccc(C(=O)N2CCCC2)c1C` [Example 4038, 5-((4-chloro-2-(((1,3-dihydroxypropan-2-yl)amino)methyl)-5-((2,2′-dimethyl-3′-(pyrrolidine-1-carbonyl)-[1,1′-biphenyl]-3-yl)methoxy)phenoxy)methyl)nicotinonitrile], with 10 to 100 nM. Regarding `Cc1c(COc2cc(OCc3cncc(C#N)c3)c(CNC(C)(CO)CO)cc2Cl)cccc1-c1cccc(C(=O)N2CCCC2)c1C` [Example 4039, 5-((4-chloro-2-(((1,3-dihydroxy-2-methylpropan-2-yl)amino)methyl)-5-((2,2′-dimethyl-3′-(pyrrolidine-1-carbonyl)-[1,1′-biphenyl]-3-yl)methoxy)phenoxy)methyl)nicotinonitrile], the IC50 (value given as range class) is 10 to 100 nM. For the molecule `CCN(CC)C(=O)c1cccc(-c2cccc(COc3cc(OCc4cncc(C#N)c4)c(CN4CCCC[C@H]4C(=O)O)cc3Cl)c2C)c1C` [Example 4040, (S)-1-(5-chloro-2-((5-cyanopyridin-3-yl)methoxy)-4-((3′-(diethylcarbamoyl)-2,2′-dimethyl-[1,1′-biphenyl]-3-yl)methoxy)benzyl)piperidine-2-carboxylic Acid], the IC50 (numeric IC50) turned out to be 92 nM. Regarding `CCN(CC)C(=O)c1cccc(-c2cccc(COc3cc(OCc4cncc(C#N)c4)c(CN4CCC[C@H]4C(=O)O)cc3Cl)c2C)c1C` [Example 4041, (5-chloro-2-((5-cyanopyridin-3-yl)methoxy)-4-((3′-(diethylcarbamoyl)-2,2′-dimethyl-[1,1′-biphenyl]-3-yl)methoxy)benzyl)-L-proline], the IC50 (value given as range class) lay in the range of 100 to 2000 nM.

As to `CCN(CC)C(=O)c1cccc(-c2cccc(COc3cc(OCc4cncc(C#N)c4)c(CN4C[C@H](O)C[C@H]4C(=O)O)cc3Cl)c2C)c1C` [Example 4042, (2S,4R)-1-(5-chloro-2-((5-cyanopyridin-3-yl)methoxy)-4-((3′-(diethylcarbamoyl)-2,2′-dimethyl-[1,1′-biphenyl]-3-yl)methoxy)benzyl)-4-hydroxypyrrolidine-2-carboxylic Acid], the IC50 (value given as range class) lay within 100 to 2000 nM. For `CCN(CC)C(=O)c1cccc(-c2cccc(COc3cc(OCc4cncc(C#N)c4)c(CN4C[C@@H](O)C[C@H]4C(=O)O)cc3Cl)c2C)c1C` [Example 4043, (2S,4S)-1-(5-chloro-2-((5-cyanopyridin-3-yl)methoxy)-4-((3′-(diethylcarbamoyl)-2,2′-dimethyl-[1,1′-biphenyl]-3-yl)methoxy)benzyl)-4-hydroxypyrrolidine-2-carboxylic Acid], the half-maximal inhibitory concentration (IC50) (value given as range class) lay in the range of 10 to 100 nM. In the case of `CCN(CC)C(=O)c1cccc(-c2cccc(COc3cc(OCc4cncc(C#N)c4)c(CNC(CO)CO)cc3Cl)c2C)c1C` [Example 4044, 3′-((2-chloro-5-((5-cyanopyridin-3-yl)methoxy)-4-(((1,3-dihydroxypropan-2-yl)amino)methyl)phenoxy)methyl)-N,N-diethyl-2,2′-dimethyl-[1,1′-biphenyl]-3-carboxamide], where the note is “value given as range class”, the IC50 fell in the range of 100 to 2000 nM. Consider `CCN(CC)C(=O)c1cccc(-c2cccc(COc3cc(OCc4cncc(C#N)c4)c(CNC(C)(CO)CO)cc3Cl)c2C)c1C` [Example 4045, 3′-((2-chloro-5-((5-cyanopyridin-3-yl)methoxy)-4-(((1,3-dihydroxy-2-methylpropan-2-yl)amino)methyl)phenoxy)methyl)-N,N-diethyl-2,2′-dimethyl-[1,1′-biphenyl]-3-carboxamide], for which, where the note is “value given as range class”, the IC50 lay in the range of 100 to 2000 nM. On the same count and under the same terms, then `CCN(CC)C(=O)c1cccc(-c2cccc(COc3cc(OCc4cncc(C#N)c4)c(CN4CCOC[C@H]4C(=O)O)cc3Cl)c2C)c1C` [Example 4046, (S)-4-(5-chloro-2-((5-cyanopyridin-3-yl)methoxy)-4-((3′-(diethylcarbamoyl)-2,2′-dimethyl-[1,1′-biphenyl]-3-yl)methoxy)benzyl)morpholine-3-carboxylic Acid], with 100 to 2000 nM; and `Cc1c(COc2cc(OCc3cncc(C#N)c3)c(CN3CCCC[C@H]3C(=O)O)cc2Cl)cccc1-c1cccc(C(=O)N2CCOCC2)c1C` [Example 4048, (S)-1-(5-chloro-2-((5-cyanopyridin-3-yl)methoxy)-4-((2,2′-dimethyl-3′-(morpholine-4-carbonyl)-[1,1′-biphenyl]-3-yl)methoxy)benzyl)piperidine-2-carboxylic Acid], with 100 to 2000 nM. As to `Cc1c(COc2cc(OCc3cncc(C#N)c3)c(CN3CCC[C@H]3C(=O)O)cc2Cl)cccc1-c1cccc(C(=O)N2CCOCC2)c1C` [Example 4049, (5-chloro-2-((5-cyanopyridin-3-yl)methoxy)-4-((2,2′-dimethyl-3′-(morpholine-4-carbonyl)-[1,1′-biphenyl]-3-yl)methoxy)benzyl)-L-proline], the IC50 (value given as range class) was 100 to 2000 nM. On the same count and under the same terms, then `Cc1c(COc2cc(OCc3cncc(C#N)c3)c(CN3C[C@H](O)C[C@H]3C(=O)O)cc2Cl)cccc1-c1cccc(C(=O)N2CCOCC2)c1C` [Example 4050, (2S,4R)-1-(5-chloro-2-((5-cyanopyridin-3-yl)methoxy)-4-((2,2′-dimethyl-3′-(morpholine-4-carbonyl)-[1,1′-biphenyl]-3-yl)methoxy)benzyl)-4-hydroxypyrrolidine-2-carboxylic Acid], with 100 to 2000 nM; and `Cc1c(COc2cc(OCc3cncc(C#N)c3)c(CN3C[C@@H](O)C[C@H]3C(=O)O)cc2Cl)cccc1-c1cccc(C(=O)N2CCOCC2)c1C` [Example 4051, (2S,4S)-1-(5-chloro-2-((5-cyanopyridin-3-yl)methoxy)-4-((2,2′-dimethyl-3′-(morpholine-4-carbonyl)-[1,1′-biphenyl]-3-yl)methoxy)benzyl)-4-hydroxypyrrolidine-2-carboxylic Acid], with 10 to 100 nM; and `Cc1c(COc2cc(OCc3cncc(C#N)c3)c(CNC(CO)CO)cc2Cl)cccc1-c1cccc(C(=O)N2CCOCC2)c1C` [Example 4052, 5-((4-chloro-2-(((1,3-dihydroxypropan-2-yl)amino)methyl)-5-((2,2′-dimethyl-3′-(morpholine-4-carbonyl)-[1,1′-biphenyl]-3-yl)methoxy)phenoxy)methyl)nicotinonitrile], with 10 to 100 nM.

(Values after patent publication US10745382B2 (BRISTOL-MYERS SQUIBB COMPANY, priority 2015, dated 2020).)
